Test results taken from patent publication US20200239530A1, “COMPOUNDS AND METHODS OF MODULATING PROTEIN DEGRADATION” (Vividion Therapeutics, Inc., priority 2017, published 2020).

How the values were obtained:
Assay in all cases: Cysteine liganding, probe competition
Assay type in all cases: binding
UniProt Q96DX4 = molecular target: T1, UniProt Q96DX4 (Homo sapiens, UniProt Q96DX4); details: read-out: percent_inhibition
T1 construct: 200 μL of lysate containing 5 mg/ml proteome was treated with 2 μL of 100× compound stock; endogenous in cells
T1 sequence (Q96DX4 17-576, change not shown): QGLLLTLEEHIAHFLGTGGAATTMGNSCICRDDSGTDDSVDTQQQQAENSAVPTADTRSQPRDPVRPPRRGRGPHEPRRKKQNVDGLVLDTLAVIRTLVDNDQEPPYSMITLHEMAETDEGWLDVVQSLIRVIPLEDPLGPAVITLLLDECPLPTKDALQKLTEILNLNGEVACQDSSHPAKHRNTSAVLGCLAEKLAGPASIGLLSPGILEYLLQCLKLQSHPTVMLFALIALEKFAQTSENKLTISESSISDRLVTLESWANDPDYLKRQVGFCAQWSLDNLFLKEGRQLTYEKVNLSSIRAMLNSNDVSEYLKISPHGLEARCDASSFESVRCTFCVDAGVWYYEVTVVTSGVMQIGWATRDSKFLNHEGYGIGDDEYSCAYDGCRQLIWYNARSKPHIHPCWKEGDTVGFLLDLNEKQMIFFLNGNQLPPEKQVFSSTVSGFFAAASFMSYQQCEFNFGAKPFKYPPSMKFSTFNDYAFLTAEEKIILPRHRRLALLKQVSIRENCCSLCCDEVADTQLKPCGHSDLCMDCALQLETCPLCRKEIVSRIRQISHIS
Excerpt: (§1) The following 96-well sample prep protocol was used for sample preparation.

UniProt Q6IQ16 = molecular target: T2, UniProt Q6IQ16 (Homo sapiens, UniProt Q6IQ16)
T2 construct: 200 μL of lysate containing 5 mg/ml proteome was treated with 2 μL of 100× compound stock; endogenous in cells
T2 sequence (Q6IQ16 1-392): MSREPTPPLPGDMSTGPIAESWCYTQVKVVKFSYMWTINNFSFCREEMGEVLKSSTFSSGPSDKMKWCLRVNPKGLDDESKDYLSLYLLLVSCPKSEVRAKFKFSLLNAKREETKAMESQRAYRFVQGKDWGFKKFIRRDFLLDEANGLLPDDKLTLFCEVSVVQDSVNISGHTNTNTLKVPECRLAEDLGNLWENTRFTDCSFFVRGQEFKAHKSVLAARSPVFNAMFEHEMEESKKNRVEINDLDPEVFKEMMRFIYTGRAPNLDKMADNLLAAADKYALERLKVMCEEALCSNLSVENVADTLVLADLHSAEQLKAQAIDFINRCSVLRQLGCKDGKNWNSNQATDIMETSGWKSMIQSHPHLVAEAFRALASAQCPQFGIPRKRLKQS
Excerpt: as §1

UniProt O00623 = molecular target: T3, UniProt O00623 (Homo sapiens, UniProt O00623)
T3 construct: 200 μL of lysate containing 5 mg/ml proteome was treated with 2 μL of 100× compound stock; endogenous in cells
T3 sequence (O00623 whole entry, change not shown): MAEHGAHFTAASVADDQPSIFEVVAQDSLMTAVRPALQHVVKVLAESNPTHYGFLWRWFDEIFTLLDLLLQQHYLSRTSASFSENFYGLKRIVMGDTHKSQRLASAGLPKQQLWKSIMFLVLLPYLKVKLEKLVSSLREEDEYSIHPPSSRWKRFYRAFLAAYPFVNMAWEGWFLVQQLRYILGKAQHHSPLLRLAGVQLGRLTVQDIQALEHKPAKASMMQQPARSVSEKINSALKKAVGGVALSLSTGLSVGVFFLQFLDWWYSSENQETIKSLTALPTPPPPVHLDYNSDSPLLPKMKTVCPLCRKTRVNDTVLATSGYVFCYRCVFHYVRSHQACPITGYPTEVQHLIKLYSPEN
Excerpt: as §1

UniProt Q9C026 = molecular target: T4, UniProt Q9C026 (Homo sapiens, UniProt Q9C026)
T4 construct: 200 μL of lysate containing 5 mg/ml proteome was treated with 2 μL of 100× compound stock; endogenous in cells
T4 sequence (Q9C026 whole entry, change not shown): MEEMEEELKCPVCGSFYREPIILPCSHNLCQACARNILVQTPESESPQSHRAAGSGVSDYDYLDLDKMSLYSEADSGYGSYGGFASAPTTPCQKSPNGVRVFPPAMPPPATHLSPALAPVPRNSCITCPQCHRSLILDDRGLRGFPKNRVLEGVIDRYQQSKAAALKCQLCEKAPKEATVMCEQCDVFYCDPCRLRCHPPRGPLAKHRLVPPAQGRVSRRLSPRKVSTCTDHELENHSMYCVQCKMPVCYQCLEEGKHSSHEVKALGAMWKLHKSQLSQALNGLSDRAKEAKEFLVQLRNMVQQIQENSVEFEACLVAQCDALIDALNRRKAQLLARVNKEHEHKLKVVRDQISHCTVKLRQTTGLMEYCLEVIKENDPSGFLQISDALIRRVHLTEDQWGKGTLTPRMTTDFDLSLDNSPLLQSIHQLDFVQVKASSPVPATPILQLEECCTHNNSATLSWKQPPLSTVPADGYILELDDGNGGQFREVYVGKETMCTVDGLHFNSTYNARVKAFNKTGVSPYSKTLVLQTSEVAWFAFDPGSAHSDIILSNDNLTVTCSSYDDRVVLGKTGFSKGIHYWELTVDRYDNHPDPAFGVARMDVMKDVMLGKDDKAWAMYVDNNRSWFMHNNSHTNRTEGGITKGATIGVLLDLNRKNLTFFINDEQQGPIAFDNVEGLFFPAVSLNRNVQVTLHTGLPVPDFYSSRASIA
Excerpt: as §1

UniProt Q12899 = molecular target: T5, UniProt Q12899 (Homo sapiens, UniProt Q12899)
T5 construct: 200 μL of lysate containing 5 mg/ml proteome was treated with 2 μL of 100× compound stock; endogenous in cells
T5 sequence (Q12899 whole entry, change not shown): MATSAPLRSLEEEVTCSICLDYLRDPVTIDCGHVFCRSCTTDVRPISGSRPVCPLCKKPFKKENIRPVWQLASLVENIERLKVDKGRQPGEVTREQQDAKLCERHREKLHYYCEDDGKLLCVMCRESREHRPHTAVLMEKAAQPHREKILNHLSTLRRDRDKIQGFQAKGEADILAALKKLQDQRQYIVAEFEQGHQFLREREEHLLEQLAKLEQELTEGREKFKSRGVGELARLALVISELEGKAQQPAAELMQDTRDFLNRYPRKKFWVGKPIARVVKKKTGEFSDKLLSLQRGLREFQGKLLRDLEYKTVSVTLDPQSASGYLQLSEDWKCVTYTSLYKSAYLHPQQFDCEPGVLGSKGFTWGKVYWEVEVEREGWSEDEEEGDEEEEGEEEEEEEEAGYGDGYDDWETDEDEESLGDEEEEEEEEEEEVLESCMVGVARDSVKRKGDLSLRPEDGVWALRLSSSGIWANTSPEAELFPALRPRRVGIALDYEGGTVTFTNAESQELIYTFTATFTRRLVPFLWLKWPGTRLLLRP
Excerpt: as §1

UniProt Q6ZNB6 = molecular target: T6, UniProt Q6ZNB6 (Homo sapiens, UniProt Q6ZNB6); details: for percent inhibition: 100 uM
T6 construct: Cells were resuspended in cold PBS on ice and sonicated with a probe sonicator to achieve lysis; endogenous in cells
T6 sequence (Q6ZNB6 1-911): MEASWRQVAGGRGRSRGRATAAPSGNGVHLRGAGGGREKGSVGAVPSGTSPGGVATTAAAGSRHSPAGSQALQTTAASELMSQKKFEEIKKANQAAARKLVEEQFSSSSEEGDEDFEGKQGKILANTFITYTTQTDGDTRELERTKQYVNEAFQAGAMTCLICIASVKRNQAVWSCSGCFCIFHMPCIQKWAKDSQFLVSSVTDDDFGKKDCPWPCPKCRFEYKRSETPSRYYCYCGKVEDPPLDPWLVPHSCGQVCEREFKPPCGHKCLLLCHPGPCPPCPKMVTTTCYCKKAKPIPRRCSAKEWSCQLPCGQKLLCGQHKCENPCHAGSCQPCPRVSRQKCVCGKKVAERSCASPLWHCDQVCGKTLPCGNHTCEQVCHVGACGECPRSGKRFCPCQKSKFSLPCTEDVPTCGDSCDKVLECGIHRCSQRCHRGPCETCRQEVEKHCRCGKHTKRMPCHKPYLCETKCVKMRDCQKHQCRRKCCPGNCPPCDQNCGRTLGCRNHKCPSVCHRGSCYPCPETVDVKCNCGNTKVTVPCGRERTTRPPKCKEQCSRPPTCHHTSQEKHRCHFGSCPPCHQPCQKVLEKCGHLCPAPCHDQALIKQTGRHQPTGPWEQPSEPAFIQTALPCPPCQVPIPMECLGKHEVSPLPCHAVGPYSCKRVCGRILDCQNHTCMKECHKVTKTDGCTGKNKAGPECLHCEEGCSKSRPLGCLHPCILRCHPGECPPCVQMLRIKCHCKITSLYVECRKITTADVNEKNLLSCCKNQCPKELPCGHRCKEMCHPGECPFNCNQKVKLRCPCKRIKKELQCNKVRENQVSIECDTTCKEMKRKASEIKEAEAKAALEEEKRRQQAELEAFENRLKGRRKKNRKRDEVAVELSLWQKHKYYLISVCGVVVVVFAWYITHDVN
Excerpt: as §1

UniProt O94972 = molecular target: T7, UniProt O94972 (Homo sapiens, UniProt O94972)
T7 construct: 200 μL of lysate containing 5 mg/ml proteome was treated with 2 μL of 100× compound stock; endogenous in cells
T7 sequence (O94972 whole entry, change not shown): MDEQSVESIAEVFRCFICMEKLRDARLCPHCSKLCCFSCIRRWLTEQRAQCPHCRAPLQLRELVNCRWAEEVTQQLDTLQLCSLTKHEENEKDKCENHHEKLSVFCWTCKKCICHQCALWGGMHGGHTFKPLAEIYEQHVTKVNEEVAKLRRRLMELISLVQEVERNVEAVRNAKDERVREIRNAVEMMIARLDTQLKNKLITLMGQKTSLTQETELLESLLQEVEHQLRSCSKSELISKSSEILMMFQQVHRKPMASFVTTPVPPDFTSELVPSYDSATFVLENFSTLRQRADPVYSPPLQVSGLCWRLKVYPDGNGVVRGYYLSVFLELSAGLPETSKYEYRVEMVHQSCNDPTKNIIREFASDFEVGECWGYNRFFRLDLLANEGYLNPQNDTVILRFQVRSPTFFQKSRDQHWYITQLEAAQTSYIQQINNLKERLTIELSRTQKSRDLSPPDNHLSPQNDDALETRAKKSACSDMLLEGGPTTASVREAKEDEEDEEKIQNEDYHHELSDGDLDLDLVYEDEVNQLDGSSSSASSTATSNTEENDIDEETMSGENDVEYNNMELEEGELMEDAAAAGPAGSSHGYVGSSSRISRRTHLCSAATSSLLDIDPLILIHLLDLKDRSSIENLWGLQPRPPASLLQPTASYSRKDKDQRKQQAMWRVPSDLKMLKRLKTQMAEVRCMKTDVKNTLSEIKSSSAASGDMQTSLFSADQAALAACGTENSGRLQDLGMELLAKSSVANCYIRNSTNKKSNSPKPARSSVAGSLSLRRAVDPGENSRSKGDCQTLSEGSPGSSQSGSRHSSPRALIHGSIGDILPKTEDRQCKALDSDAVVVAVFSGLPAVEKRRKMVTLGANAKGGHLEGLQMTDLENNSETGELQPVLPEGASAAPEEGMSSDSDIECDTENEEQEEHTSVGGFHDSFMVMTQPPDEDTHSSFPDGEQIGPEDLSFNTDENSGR
Excerpt: as §1

UniProt P36406 = molecular target: T8, UniProt P36406 (Homo sapiens, UniProt P36406)
T8 construct: 200 μL of lysate containing 5 mg/ml proteome was treated with 2 μL of 100× compound stock; endogenous in cells
T8 sequence (P36406 whole entry, change not shown): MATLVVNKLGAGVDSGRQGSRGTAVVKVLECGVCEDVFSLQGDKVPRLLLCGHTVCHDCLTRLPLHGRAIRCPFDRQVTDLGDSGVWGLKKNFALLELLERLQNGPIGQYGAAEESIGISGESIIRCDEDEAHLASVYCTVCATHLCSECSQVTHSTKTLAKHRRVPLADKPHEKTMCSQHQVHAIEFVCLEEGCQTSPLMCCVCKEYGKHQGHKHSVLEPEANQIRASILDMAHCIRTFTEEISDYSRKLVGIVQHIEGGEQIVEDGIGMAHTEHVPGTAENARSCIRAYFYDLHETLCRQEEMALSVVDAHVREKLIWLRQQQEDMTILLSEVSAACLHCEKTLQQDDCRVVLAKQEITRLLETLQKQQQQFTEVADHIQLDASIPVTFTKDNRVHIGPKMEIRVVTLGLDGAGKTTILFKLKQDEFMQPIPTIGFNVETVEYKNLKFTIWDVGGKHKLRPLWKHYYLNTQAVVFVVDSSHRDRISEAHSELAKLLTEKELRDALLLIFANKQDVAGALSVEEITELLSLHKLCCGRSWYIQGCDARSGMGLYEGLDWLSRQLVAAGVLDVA
Excerpt: as §1

UniProt A1L020 = molecular target: T9, UniProt A1L020 (Homo sapiens, UniProt A1L020)
T9 construct: Cells were resuspended in cold PBS on ice and sonicated with a probe sonicator to achieve lysis; endogenous in cells
T9 sequence (A1L020 whole entry, change not shown): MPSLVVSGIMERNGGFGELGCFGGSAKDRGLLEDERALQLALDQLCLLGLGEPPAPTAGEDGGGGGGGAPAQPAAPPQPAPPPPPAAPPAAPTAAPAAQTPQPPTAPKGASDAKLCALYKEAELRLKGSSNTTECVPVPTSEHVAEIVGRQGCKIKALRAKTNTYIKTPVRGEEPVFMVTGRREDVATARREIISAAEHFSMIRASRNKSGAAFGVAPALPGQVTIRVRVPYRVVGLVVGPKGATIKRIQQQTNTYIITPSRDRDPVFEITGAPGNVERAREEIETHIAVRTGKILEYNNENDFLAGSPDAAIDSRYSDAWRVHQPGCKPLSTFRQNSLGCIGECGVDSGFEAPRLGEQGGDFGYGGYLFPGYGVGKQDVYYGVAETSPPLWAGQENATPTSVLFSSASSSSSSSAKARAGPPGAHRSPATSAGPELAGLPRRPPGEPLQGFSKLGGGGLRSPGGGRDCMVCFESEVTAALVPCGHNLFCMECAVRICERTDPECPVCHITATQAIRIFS
Excerpt: as §1

UniProt Q9HCI7 = molecular target: T10, UniProt Q9HCI7 (Homo sapiens, UniProt Q9HCI7); details: for percent inhibition: 100 uM
T10 construct: Cells were resuspended in cold PBS on ice and sonicated with a probe sonicator to achieve lysis; endogenous in cells
T10 sequence (Q9HCI7 1-577): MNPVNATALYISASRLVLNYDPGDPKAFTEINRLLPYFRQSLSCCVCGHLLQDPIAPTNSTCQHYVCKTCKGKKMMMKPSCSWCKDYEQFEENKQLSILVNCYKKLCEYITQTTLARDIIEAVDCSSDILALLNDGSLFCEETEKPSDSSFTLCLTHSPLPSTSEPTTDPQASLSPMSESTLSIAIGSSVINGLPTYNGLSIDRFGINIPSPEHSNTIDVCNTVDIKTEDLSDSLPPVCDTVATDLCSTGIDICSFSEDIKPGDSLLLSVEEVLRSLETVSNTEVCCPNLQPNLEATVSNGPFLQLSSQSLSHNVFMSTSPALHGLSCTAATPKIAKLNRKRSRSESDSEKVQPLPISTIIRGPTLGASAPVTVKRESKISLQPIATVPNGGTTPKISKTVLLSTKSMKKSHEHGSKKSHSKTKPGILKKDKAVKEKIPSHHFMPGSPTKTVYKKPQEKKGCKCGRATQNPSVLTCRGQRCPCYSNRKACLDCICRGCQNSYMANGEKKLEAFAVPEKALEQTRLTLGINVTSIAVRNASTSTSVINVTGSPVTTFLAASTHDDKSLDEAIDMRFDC
Excerpt: as §1

[1] = read-out: KB05_100 uM_percent_inhibition

Compound COc1ccc2c(c1)CCCN2C(=O)CCl [KB02] has an inhibition at 500 µM (UniProt Q96DX4) of 17%, an inhibition at 100 µM (UniProt Q6IQ16; read-out: percent_inhibition) of 16% and an inhibition at 500 µM (UniProt O00623; read-out: KB02_500 uM_percent_inhibition) of 61%. The “KB02_500 uM_percent_inhibition” value (UniProt Q9C026; 500 uM) was 69% and the inhibition at 500 µM (UniProt Q9C026; 500 uM, read-out: KB02_500 uM_percent_inhibition) was 64%.
C=CC(=O)N(c1ccccc1)c1ccc(Br)cc1 [KB05] was tested, and the inhibition at 100 µM (UniProt Q12899; [1]) was 28%, the inhibition at 500 µM (UniProt Q96DX4) was 24% and the percent inhibition (UniProt Q6ZNB6) was 36%. The inhibition at 100 µM (UniProt Q6ZNB6; read-out: percent inhibition) was 21%, the inhibition at 100 µM (UniProt Q6IQ16; read-out: percent_inhibition) was 20% and the percent_inhibition (UniProt Q6IQ16; 500 uM) was 57%. It also gave an inhibition at 500 µM (UniProt Q6IQ16; 500 uM, read-out: percent_inhibition) of 44%, an inhibition at 100 µM (UniProt O94972; [1]) of 18% and an inhibition at 500 µM (UniProt P36406; read-out: KB05_500 uM_percent_inhibition) of 61%. The inhibition at 100 µM (UniProt A1L020; read-out: percent inhibition) was 19%, the percent inhibition (UniProt Q9HCI7) was 11% and the inhibition at 100 µM (UniProt Q9HCI7; read-out: percent inhibition) was 15%.
O=C(CCl)Nc1cc(C(F)(F)F)cc(C(F)(F)F)c1 [KBO3] was tested, and the “KB03_100 uM_percent_inhibition” value (UniProt Q12899; 100 uM) was 56%, the percent inhibition (UniProt Q6ZNB6) was 20% and the “KB03_100 uM_percent_inhibition” value (UniProt O94972; 100 uM) was 36%. For the same compound, the “KB03_500 uM_percent_inhibition” value (UniProt O00623; 500 uM) was 51%, the “KB03_500 uM_percent_inhibition” value (UniProt P36406; 500 uM) was 17% and the “KB03_100 uM_percent_inhibition” value (UniProt Q9C026; 100 uM) was 13%. For the same compound, the percent inhibition (UniProt A1L020; 100 uM) was 52% and the percent inhibition (UniProt Q9HCI7) was 49%.
